Source: patent US12528767B2, “HDAC6 inhibitors and uses thereof” (Eikonizo Therapeutics, Inc., priority 2019, dated 2026)
Where two headings read alike, the source gives them in different places.

Key:
[1] = biological target: T1, Full length Human HDAC6 (Homo sapiens, UniProt Q9UBN7); conditions: for Selectivity (6 v 8) (fold): ratio of HDAC8 IC50/HDAC6 IC50
T1 sequence (Q9UBN7 1-1215): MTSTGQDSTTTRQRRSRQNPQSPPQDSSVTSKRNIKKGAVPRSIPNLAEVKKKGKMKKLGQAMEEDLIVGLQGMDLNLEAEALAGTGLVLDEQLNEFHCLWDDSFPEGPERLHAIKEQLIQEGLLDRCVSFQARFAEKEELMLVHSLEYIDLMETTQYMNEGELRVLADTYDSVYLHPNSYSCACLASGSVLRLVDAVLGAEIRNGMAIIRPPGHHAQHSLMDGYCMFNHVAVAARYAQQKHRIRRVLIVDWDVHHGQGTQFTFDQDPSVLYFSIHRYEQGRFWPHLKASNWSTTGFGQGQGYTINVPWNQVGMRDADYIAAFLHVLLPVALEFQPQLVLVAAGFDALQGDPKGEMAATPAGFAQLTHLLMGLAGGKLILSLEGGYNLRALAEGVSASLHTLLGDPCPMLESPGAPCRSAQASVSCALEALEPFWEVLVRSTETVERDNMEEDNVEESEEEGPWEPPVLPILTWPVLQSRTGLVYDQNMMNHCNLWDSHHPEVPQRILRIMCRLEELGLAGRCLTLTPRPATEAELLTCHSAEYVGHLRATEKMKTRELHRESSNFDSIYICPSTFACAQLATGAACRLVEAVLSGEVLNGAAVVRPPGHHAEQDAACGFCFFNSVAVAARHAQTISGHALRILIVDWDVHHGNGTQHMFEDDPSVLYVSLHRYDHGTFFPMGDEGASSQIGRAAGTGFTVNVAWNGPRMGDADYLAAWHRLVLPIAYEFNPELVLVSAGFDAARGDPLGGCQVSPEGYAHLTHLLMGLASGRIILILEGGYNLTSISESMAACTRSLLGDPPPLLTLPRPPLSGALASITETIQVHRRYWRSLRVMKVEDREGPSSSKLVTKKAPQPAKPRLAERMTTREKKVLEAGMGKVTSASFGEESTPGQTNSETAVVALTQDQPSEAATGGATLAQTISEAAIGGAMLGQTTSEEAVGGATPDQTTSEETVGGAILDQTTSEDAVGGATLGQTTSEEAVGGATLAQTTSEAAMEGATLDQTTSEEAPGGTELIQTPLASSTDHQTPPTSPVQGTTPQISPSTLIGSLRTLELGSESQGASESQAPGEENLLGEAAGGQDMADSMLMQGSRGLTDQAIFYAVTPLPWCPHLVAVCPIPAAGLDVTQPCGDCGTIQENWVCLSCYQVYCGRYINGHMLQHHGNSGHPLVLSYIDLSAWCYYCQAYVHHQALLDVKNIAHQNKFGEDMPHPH

[2] = biological target: T2, Full length Human HDAC8 (Homo sapiens, UniProt Q9BY41)
T2 sequence (Q9BY41 1-377): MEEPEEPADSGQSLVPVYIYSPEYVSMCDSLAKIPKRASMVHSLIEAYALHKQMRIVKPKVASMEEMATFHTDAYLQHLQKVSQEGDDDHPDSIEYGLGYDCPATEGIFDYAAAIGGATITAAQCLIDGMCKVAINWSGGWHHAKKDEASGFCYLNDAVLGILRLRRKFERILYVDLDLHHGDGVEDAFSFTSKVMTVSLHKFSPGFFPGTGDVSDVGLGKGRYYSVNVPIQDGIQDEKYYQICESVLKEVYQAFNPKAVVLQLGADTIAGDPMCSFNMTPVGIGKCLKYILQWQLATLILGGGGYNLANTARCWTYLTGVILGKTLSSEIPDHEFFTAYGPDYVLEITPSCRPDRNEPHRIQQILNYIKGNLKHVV

SMILES | IC50 [1] | Selectivity (6 v 8) (fold) ([1]; Table 1, number) | Selectivity (6 v 8) (fold) ([1]; Table 1, range class) | IC50 [2]
O=C(NO)c1ccc(CN2CCOCC2)c(F)c1 [compound 51] | 1 to 100 nM | 27.6 fold | III (III: >10-100) | 100 to 1000 nM
CN1Cc2ccc(C(=O)NO)cc2CN1Cc1ccccc1 [compound 117, 3-benzyl-N-hydroxy-2-methyl-1,2,3,4-tetrahydrophthalazine-6-carboxamide] | 1 to 100 nM | 7.9 fold | II (II: >1-10) | 100 to 1000 nM
O=C(NO)c1ccc(CN2CCCC3(CCCCC3)C2)c(F)c1 [compound 64] | 1 to 100 nM |  |  | 1000 to 10000 nM
O=C(NO)c1cc(F)c2c(c1)CN(CC1COC1)CC2 [compound 115, 5-fluoro-N-hydroxy-2-(oxetan-3-ylmethyl)-1,2,3,4-tetrahydroisoquinoline-7-carboxamide] | 100 to 1000 nM |  |  | 1000 to 10000 nM
O=C(NO)c1cc(F)c2c(c1)CCN([C@@H]1CCC13CCCCC3)C2 (single isomer, unassigned) [compound 8] | 100 to 1000 nM | 198.5 fold | IV (IV: >100-1000) | 10000 to 100000 nM
O=C(NO)c1ccc(CN2CC3(CCCCC3)C2)c(F)c1 [compound 70] | 1 to 100 nM | 16 fold | III (III: >10-100) | 1000 to 10000 nM
O=C(NO)c1ccc2c(c1)Cn1cccc1-2 [compound 166, N-hydroxy-5H-pyrrolo[2,1-a]isoindole-7-carboxamide] | 100 to 1000 nM | 14 fold | III (III: >10-100) | 1000 to 10000 nM
O=C(NO)c1ccc2c(c1F)CCN(CC13CC4CC(CC(C4)C1)C3)C2 [compound 21] | 100 to 1000 nM | 50.2 fold | III (III: >10-100) | 1000 to 10000 nM
CC1(CN2CCc3cc(C(=O)NO)cc(F)c3C2)CC1 [compound 1, 8-fluoro-N-hydroxy-2-((1-methylcyclopropyl)methyl)-1,2,3,4-tetrahydroisoquinoline-6-carboxamide] | 1 to 100 nM | 145.7 fold | IV (IV: >100-1000) | 10000 to 100000 nM
O=C(NO)c1cc(F)c2c(c1)CCN(C1CCC13CCCCC3)C2 (stereo not drawn) [compound 15] | 1 to 100 nM | 209.2 fold | IV (IV: >100-1000) | 10000 to 100000 nM
CN1CC2(CCCCC2)CC[C@H]1Cc1cc(F)cc(C(=O)NO)c1 (single isomer, unassigned) [compound 171] | 1 to 100 nM | 30.2 fold | III (III: >10-100) | 1000 to 10000 nM
O=C(NO)c1cc(F)c2c(c1)CCN(CC13C4C5C6C4C1C6C53)C2 (stereo not drawn) [compound 25] | 1 to 100 nM |  |  | 10000 to 100000 nM
O=C(NO)c1cc(F)c2c(c1)CCN(CC13CC4CC(CC(C4)O1)C3)C2 [compound 14] | 1 to 100 nM |  |  | 10000 to 100000 nM
O=C1CC2CCCC(C1)N2Cc1ccc(C(=O)NO)cc1F [compound 62] | 1 to 100 nM | 30.6 fold | III (III: >10-100) | 100 to 1000 nM
O=C(NO)c1ccc(CN2CCC3(CC2)C2CC4CC(C2)CC3C4)c(F)c1 [compound 167, 3-fluoro-N-hydroxy-4-(((1r,3r,5r,7r)-spiro[adamantane-2,4′-piperidin]-1′-yl)methyl)benzamide] | 1 to 100 nM | 41.9 fold | III (III: >10-100) | 1000 to 10000 nM
O=C1CC2CCC(C1)N2Cc1ccc(C(=O)NO)cc1F [compound 63] | 1 to 100 nM | 42.1 fold | III (III: >10-100) | 100 to 1000 nM
O=C(NO)c1cc(F)c2c(c1)CN(CC13CC4CC(CC(C4)C1)C3)CC2 [compound 113, 2-(((3r,5r,7r)-adamantan-1-yl)methyl)-5-fluoro-N-hydroxy-1,2,3,4-tetrahydroisoquinoline-7-carboxamide] | 1 to 100 nM |  |  | 1000 to 10000 nM
O=C(NO)c1ccc(CN2CC3(COC3)C2)c(F)c1 [compound 72] | 1 to 100 nM | 44.8 fold | III (III: >10-100) | 100 to 1000 nM
O=C(NO)c1cc(F)c2c(c1)CCN(CC1CCC1)C2 [compound 3] | 1 to 100 nM |  |  | 1000 to 10000 nM
O=C(NO)c1ccc(CN2CCC3(CCCC3)C2)c(F)c1 [compound 73] | 1 to 100 nM | 35.8 fold | III (III: >10-100) | 1000 to 10000 nM
CN1CC2CCC(C1)N2Cc1ccc(C(=O)NO)cc1F [compound 56] | 1 to 100 nM | 19 fold | III (III: >10-100) | 100 to 1000 nM
O=C(NO)c1ccc2c(c1)CN1CCC[C@@H]21 (single isomer, unassigned) [compound 165] | 100 to 1000 nM | 15 fold | III (III: >10-100) | 1000 to 10000 nM
O=C(NO)c1ccc2c(c1)C[C@@H]1COCC(=O)N1C2 (single isomer, unassigned) [compound 133] | 100 to 1000 nM |  |  | 1000 to 10000 nM
CN1CC2CCC1CN2Cc1ccc(C(=O)NO)cc1F (stereo not drawn) [compound 57] | 1 to 100 nM | 10.7 fold | III (III: >10-100) | 100 to 1000 nM
O=C(NO)c1cc(F)c2c(c1)CCN(CC1CC1)C2 [compound 2] | 1 to 100 nM |  |  | 1000 to 10000 nM
O=C(NO)c1cc(F)c2c(c1)CCN(C1CCC1)C2 [compound 4] | 1 to 100 nM |  |  | 10000 to 100000 nM
O=C(NO)c1ccc(CN2CC3(CCCC3)C2)c(F)c1 [compound 69] | 1 to 100 nM | 20.6 fold | III (III: >10-100) | 1000 to 10000 nM
